# Measurements as given in publication PMC9186491, “Novel Small Molecule Tyrosine Kinase 2 Pseudokinase Ligands Block Cytokine-Induced TYK2-Mediated Signaling Pathways” (Frontiers in Immunology, 2022).
# Read-outs that look alike come from different tables or passages of the source.
# Legend:
# [1] = system: IFNα-induced CXCL10 production in human whole blood; assay: IFNα-induced CXCL10 production in human whole blood; format: cell-based
# Method: Human whole blood [drawn with Ethylenediaminetetraacetic acid (EDTA) as anti-coagulant] was obtained from Zen-Bio Inc. (Durham, NC). […] The plasma was collected for detection of C-X-C motif chemokine 10 (CXCL10, IP10) secretion. CXCL10 was measured by Human CXCL10/IP-10 AlphaLISA Kit (PerkinElmer, #AL259 C/F) according to the manufacturer’s instructions.
# [2] = system: IL23-induced TYK2/phosphoSTAT3 (Tyr705) in Kit225 T cells; assay: Kit225 T cell assay for IL23-induced TYK2/phosphoSTAT3 activity; format: cell-based, human; details: Homo sapiens, KIT225, read-out: IC50 IL23-induced-STAT3 Phosphorylation
# Method: (§1) The cells were treated with serially diluted compounds for 1 hour and stimulated with 100 ng/mL human recombinant IL23 (R&D Systems) for 20 minutes. The treated cells were then lysed and cellular phosphorylated-STAT3 (Tyr705) levels were measured by AlphaLISA (PerkinElmer, Cat# ALSU-PST3) according to the manufacturer’s instructions.
# [3] = system: IFNα-induced TYK2/phosphoSTAT1 (Tyr701) in Kit225 T cells; assay: Kit225 T cell assay for IFNα-induced TYK2/phosphoSTAT1 activity; format: cell-based, human; details: Homo sapiens, KIT225, read-out: IC50 IFNα-induced-STAT1 Phosphorylation
# Method: as §1, with “80” for “100”, “IFNα” for “IL23”, “15” for “20”, “phosphorylated-STAT1 (Tyr701)” for “phosphorylated-STAT3 (Tyr705)”, “Cat#ALSU-PST1)” for “Cat# ALSU-PST3)”
# LM T1/2, D = format: in vitro ADME; details: dog, liver microsomes
# LM T1/2, H = format: in vitro ADME; details: human, liver microsomes
# CYP450 3A4 = CYP450 3A4 (Homo sapiens, UniProt P08684); assay: CYP450 inhibition, 3A4; format: in vitro ADME; details: 3A4(m); read-out: CYP450 3A4(m)
# GSH = format: in vitro ADME
# CYP450 2D6 = CYP450 2D6 (Homo sapiens, UniProt P10635); assay: CYP450 inhibition, 2D6; format: in vitro ADME
# LM T1/2, M = format: in vitro ADME; details: mouse, liver microsomes
# LM T1/2, R = format: in vitro ADME; details: rat, liver microsomes
# CYP450 2C19 = CYP450 2C19 (Homo sapiens, UniProt P33261); assay: CYP450 inhibition, 2C19; format: in vitro ADME
# CYP450 1A2 = molecular target: T1, CYP450 1A2 (Homo sapiens, UniProt P05177); assay: CYP450 inhibition, 1A2; format: in vitro ADME
# T1 sequence (P05177 1-516): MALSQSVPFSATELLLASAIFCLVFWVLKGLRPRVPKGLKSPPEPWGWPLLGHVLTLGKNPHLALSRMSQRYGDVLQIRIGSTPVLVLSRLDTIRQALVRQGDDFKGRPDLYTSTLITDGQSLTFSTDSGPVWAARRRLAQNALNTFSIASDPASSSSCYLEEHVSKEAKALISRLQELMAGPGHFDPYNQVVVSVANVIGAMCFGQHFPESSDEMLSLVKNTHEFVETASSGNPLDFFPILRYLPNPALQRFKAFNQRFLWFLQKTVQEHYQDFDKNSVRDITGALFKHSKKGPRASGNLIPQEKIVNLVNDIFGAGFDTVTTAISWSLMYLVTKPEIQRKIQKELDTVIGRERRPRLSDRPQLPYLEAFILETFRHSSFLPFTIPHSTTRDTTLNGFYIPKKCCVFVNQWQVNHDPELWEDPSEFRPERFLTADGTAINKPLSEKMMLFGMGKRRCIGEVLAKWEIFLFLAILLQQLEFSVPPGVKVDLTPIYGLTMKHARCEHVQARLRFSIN
# Solubility (PBS/Fas/Fes) = format: physicochemical
# TYK2 JH1 kinase domain = molecular target: T2, TYK2 JH1 kinase domain (Homo sapiens, UniProt P29597); assay: KdELECT competition binding assay, TYK2 JH1; details: isolated TYK2 JH1 domain
# T2 construct: purchased Eurofins DiscoverX Corporation (contract assay)
# T2 sequence (P29597 897-1176 limits assumed): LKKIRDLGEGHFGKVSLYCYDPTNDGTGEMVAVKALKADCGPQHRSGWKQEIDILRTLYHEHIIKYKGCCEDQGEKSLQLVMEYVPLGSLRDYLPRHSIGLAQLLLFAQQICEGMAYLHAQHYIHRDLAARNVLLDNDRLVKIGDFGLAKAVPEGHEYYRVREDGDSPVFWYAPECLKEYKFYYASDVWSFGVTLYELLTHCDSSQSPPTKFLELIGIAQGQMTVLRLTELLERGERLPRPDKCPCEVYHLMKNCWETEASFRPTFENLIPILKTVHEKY
# Method: (§2) The KdELECT competition assays were performed to test the binding affinity of compounds to the JH1 kinase region or JH2 pseudokinase region in TYK2 or JAK by ligand competition with JH1 or JH2 protein segments. The assay was carried out at Eurofins DiscoverX Corporation following the established standard protocol (DiscoverX, San Diego, CA). In this assay, compounds that bind to the kinase or pseudokinase protein regions prevent the protein binding to the immobilized ligand and reduce the amount of kinase matter captured on the solid surface. […] Dissociation constants (Kds) for test compound-kinase interactions are calculated by measuring the amount of kinase captured on the solid support as a function of the test compound concentration. […] The ligated beads were blocked with excess biotin and washed with blocking buffer to remove unbound ligand and to reduce nonspecific binding. […] All reactions were performed in polypropylene 384-well plates with a final volume of 20 μL. […] The beads were then re-suspended in the elution buffer and incubated at room temperature with shaking for 30 minutes. The kinase concentration in the eluant was measured by qPCR. Two replicates were performed and averaged to obtain the Kd measurement.
# CYP450 2C9 = CYP450 2C9 (Homo sapiens, UniProt P11712); assay: CYP450 inhibition, 2C9; format: in vitro ADME
# LM T1/2, Mk = format: in vitro ADME; details: monkey, liver microsomes
# [4] = molecular target: T3, TYK2 JH2 pseudokinase domain (Homo sapiens, UniProt P29597); assay: KdELECT competition binding assay, TYK2 JH2; details: isolated TYK2 JH2 domain
# T3 construct: purchased Eurofins DiscoverX Corporation (contract assay)
# Method: as §2
# panel of 98 kinases = assay: Kinome screening panel (DiscoverX scanEdge); format: binding; details: 1 µM; 91 non-mutant kinases
# Method: For compound selectivity across a multi-kinase panel, compound binding affinity to each kinase or pseudokinase protein region was assessed using the DiscoverX scanEdge screening. Compounds were screened at a concentration of 1,000 nM in competition binding assays at Eurofins DiscoverX Corporation following the established standard protocol (DiscoverX, San Diego, CA), as described previously in the KdELECT competition binding assay. Competition with test compounds for binding to resin conjugated affinity ligand was employed to determine the “hits”, which are identified by measuring the amount of kinase captured in test versus control samples by using a quantitative PCR method that detects the associated DNA label. This measurement assesses compound selectivity against a panel of 98 kinases including kinases from the protein kinase A, G, and C family group (AGC), Ca^2+/calmodulin-dependent protein kinase class of enzymes (CAMK), group of cyclin-dependent kinase (CDK), mitogen-activated protein kinase (MAPK), glycogen synthase kinase (GSK) and CDC-like kinase (CLK) (CMGC), Casein kinase 1 (CK1), group of Ste 7, Ste 11 and Ste 20 kinases (STE), Tyrosine Kinases (TK), Tyrosine Kinase-Like group (TKL), lipid, and atypical kinase families, and other mutant forms.
# [5] = Homo sapiens, read-out: IFNa-induced-CXCL10 Production in Human Whole Blood IC50, Average
# [6] = Homo sapiens, read-out: IFNa-induced-CXCL10 Production in Human Whole Blood IC50, Donor 1
# [7] = Homo sapiens, read-out: IFNa-induced-CXCL10 Production in Human Whole Blood IC50, Donor 2
# [8] = Homo sapiens, read-out: IFNa-induced-CXCL10 Production in Human Whole Blood IC50, Donor 3
# T3 sequence (P29597 589-875 limits assumed): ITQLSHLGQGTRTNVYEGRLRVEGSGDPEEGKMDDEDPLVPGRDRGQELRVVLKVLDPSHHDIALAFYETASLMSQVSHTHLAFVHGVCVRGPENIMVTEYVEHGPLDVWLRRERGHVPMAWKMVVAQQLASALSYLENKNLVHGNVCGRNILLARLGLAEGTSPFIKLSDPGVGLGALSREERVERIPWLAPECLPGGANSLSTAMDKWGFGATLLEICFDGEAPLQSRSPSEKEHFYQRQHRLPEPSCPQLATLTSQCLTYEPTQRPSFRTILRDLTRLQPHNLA
# Chain of CYP450 2C9 (P11712 whole entry): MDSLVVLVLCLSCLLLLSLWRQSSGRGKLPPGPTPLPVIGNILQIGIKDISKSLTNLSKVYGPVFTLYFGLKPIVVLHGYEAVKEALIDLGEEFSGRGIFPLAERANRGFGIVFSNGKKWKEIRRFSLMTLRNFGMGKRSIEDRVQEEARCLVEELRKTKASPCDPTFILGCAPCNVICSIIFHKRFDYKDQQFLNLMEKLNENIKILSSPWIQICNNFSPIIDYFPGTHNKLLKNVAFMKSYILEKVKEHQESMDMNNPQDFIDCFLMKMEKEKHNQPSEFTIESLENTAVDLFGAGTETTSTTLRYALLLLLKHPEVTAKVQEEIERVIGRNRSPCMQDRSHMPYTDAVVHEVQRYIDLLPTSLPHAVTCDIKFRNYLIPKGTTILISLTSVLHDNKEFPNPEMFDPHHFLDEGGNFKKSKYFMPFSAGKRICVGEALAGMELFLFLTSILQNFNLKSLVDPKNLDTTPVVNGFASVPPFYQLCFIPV
# Chain of CYP450 2C19 (P33261 whole entry): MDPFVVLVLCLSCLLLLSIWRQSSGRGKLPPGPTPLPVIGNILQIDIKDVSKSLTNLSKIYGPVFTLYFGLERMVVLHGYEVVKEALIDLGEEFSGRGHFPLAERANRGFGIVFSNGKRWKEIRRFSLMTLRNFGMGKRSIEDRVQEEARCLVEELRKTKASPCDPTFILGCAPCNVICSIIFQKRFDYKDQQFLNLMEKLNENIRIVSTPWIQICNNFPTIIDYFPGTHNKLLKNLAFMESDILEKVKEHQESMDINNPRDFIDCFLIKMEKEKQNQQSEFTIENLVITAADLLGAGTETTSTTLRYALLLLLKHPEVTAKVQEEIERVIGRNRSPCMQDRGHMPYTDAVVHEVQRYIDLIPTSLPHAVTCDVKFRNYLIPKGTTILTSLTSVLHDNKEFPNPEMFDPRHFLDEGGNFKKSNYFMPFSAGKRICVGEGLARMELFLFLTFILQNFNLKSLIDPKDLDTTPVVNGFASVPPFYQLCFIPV
# Chain of CYP450 3A4 (P08684 whole entry): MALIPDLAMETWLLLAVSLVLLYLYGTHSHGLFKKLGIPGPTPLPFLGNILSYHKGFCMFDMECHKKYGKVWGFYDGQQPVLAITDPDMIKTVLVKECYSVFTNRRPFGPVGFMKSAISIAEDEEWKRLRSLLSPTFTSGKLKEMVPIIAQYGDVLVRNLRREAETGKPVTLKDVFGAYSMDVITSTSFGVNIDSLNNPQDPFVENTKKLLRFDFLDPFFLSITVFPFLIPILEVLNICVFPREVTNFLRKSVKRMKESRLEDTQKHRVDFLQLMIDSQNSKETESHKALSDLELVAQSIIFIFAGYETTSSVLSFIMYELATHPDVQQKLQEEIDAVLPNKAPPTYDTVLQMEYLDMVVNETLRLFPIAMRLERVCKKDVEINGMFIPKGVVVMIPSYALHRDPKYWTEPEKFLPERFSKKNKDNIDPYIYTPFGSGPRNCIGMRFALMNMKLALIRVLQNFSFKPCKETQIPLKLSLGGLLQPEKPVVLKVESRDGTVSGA
# Chain of CYP450 2D6 (P10635 whole entry): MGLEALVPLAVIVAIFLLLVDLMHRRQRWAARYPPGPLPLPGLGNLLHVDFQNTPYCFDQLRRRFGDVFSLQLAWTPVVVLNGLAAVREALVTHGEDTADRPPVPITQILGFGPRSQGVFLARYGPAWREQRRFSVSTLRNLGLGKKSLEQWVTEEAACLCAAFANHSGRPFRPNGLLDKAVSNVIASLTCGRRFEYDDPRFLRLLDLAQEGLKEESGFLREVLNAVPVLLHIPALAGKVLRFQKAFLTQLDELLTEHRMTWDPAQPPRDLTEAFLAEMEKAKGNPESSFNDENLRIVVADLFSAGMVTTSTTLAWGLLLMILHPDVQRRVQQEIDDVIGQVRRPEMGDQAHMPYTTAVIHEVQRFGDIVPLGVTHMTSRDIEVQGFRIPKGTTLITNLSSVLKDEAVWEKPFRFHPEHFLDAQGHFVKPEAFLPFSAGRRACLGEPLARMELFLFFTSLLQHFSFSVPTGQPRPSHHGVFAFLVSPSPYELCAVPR
smiles,measurement,setting,value
Cn1cc(-c2cn3nccc3c(-c3cnn([C@]4(CC#N)C[C@@H](C#N)C4)c3)n2)cn1 [Ropsacitinib],IC50,"[1]; human whole blood, IFNα 16 hours; read-out: TYK2-associated IFNα-induced-CXCL10 Production in Human Whole Blood: IC50",2000 ± 960 nM
CC[C@@H]1CN(C(=O)NCC(F)(F)F)C[C@@H]1c1cnc2cnc3[nH]ccc3n12 [Upadacitinib],IC50,[2],22 nM
same,IC50,[3],7 nM
same,IC50,[1]; [5],120 nM
same,IC50,[1]; [6],130 nM
same,IC50,[1]; [7],110 nM
same,IC50,[1]; [8],130 nM
N#CC[C@H](C1CCCC1)n1cc(-c2ncnc3[nH]ccc23)cn1 [Ruxolitinib],IC50,[2],3 nM
same,IC50,[3],12 nM
same,IC50,[1]; [5],1900 nM
same,IC50,[1]; [6],2100 nM
same,IC50,[1]; [7],2800 nM
same,IC50,[1]; [8],740 nM
CNC(=O)c1nnc(NC(=O)C2CC2)c2[nH]c(-c3ccccc3OC)cc12 [SHR2178],half-life,"LM T1/2, D",40 min
same,half-life,"LM T1/2, H",34 min
same,IC50,CYP450 3A4,30 µM
same,GSH,GSH,negative
same,IC50,CYP450 2D6,30 µM
same,half-life,"LM T1/2, M",55 min
same,half-life,"LM T1/2, R",24 min
same,IC50,CYP450 2C19,30 µM
same,IC50,CYP450 1A2,4 µM
same,solubility,"Solubility (PBS/Fas/Fes); FaSSIF, read-out: Solubility, Fas",1.7 µM
same,solubility,"Solubility (PBS/Fas/Fes); FeSSIF (Fes [sic]), fessif, read-out: Solubility, Fes",3.5 µM
same,solubility,"Solubility (PBS/Fas/Fes); PBS, aqueous buffer, read-out: Solubility, PBS",0.1 µM
same,Kd,TYK2 JH1 kinase domain,> 20 µM
same,IC50,CYP450 2C9,30 µM
same,half-life,"LM T1/2, Mk",99 min
same,Kd,[4],0.34 nM
O=C(Nc1nc2cccc(-c3ccc(CN4CCS(=O)(=O)CC4)cc3)n2n1)C1CC1 [Filgotinib],IC50,[2],3800 nM
same,IC50,[3],250 nM
same,IC50,"[1]; Homo sapiens; average of Donor 1-3; read-out: IFNa-induced-CXCL10 Production in Human Whole Blood IC50, Average",730 nM
same,IC50,"[1]; Homo sapiens; read-out: IFNa-induced-CXCL10 Production in Human Whole Blood IC50, Donor 1",770 nM
same,IC50,"[1]; Homo sapiens; read-out: IFNa-induced-CXCL10 Production in Human Whole Blood IC50, Donor 2",790 nM
same,IC50,"[1]; Homo sapiens; read-out: IFNa-induced-CXCL10 Production in Human Whole Blood IC50, Donor 3",630 nM
[2H]C([2H])([2H])NC(=O)c1nnc(NC(=O)C2CC2)cc1Nc1cccc(-c2nc3c(s2)CN(S(C)(=N)=O)C3)c1OC (stereo not drawn) [SHR3110],IC50,[2],24 nM
same,IC50,[3],16 nM
same,IC50,[1]; [5],570 nM
same,IC50,[1]; [6],480 nM
same,IC50,[1]; [7],710 nM
same,IC50,[1]; [8],520 nM
CNC(=O)c1cnc(Nc2ccc(N3CCC3)cn2)cc1Nc1ccccc1S(C)(=O)=O [SHR1274],No. of Hits S (1),panel of 98 kinases,1
same,No. of Hits S (10),panel of 98 kinases,1
same,No. of Hits S (35),panel of 98 kinases,2
same,Kd,[4],0.053 nM
